This is an account of results in BindingDB's records for doi:10.1021/jm00053a022 (University of Paris, 1993).

Non-standard residues stand in square brackets, D forms with d. Residues, ends and D or L forms follow the SMILES beside them. *: point of attachment. NMeW = CN[C@@H](Cc1c[nH]c2ccccc12)C(=O)O; 1Nal = N[C@@H](Cc1cccc2ccccc12)C(=O)O; Chg = N[C@H](C(=O)O)C1CCCCC1; Phg = N[C@H](C(=O)O)c1ccccc1; OtBu = CC(C)(C)O*

The first experiment addresses Gastrin/cholecystokinin type B receptor (Cavia porcellus). The experiment in a line: Displacement of [3H]pCCK-8 from cholecystokinin type B receptor in guinea pig brain membrane.
As to `CCCC[C@H](NC(=O)[C@H](CC(=O)O)NC(=O)[C@@H](N)Cc1ccccc1)C(=O)N[C@H](Cc1c[nH]c2ccccc12)C(=O)OC(C)(C)C` [3-(2-Amino-3-phenyl-propionylamino)-N-{1-[1-tert-butoxycarbonyl-2-(1H-indol-3-yl)-ethylcarbamoyl]-pentyl}-succinamic acid], the affinity corresponds to a Ki of 160 nM.
For the compound `CCCC[C@H](NC(=O)[C@H](CC(=O)O)NC(=O)[C@H](Cc1cccc2ccccc12)N(C)C)C(=O)N(C)[C@@H](Cc1c[nH]c2ccccc12)C(=O)OC(C)(C)C` [N-(1-{[1-tert-Butoxycarbonyl-2-(1H-indol-3-yl)-ethyl]-methyl-carbamoyl}-pentyl)-3-(2-dimethylamino-3-naphthalen-1-yl-propionylamino)-succinamic acid], the Ki (usually the dissociation constant of the complex between target and ligand, obtained from inhibition or displacement) worked out at 81 nM.
For `CN(C(=O)[C@@H](NC(=O)[C@H](CC(=O)O)NC(=O)[C@@H](N)Cc1cccc2ccccc12)C1CCCCC1)[C@@H](Cc1c[nH]c2ccccc12)C(=O)OC(C)(C)C` [3-(2-Amino-3-naphthalen-1-yl-propionylamino)-N-({[1-tert-butoxycarbonyl-2-(1H-indol-3-yl)-ethyl]-methyl-carbamoyl}-cyclohexyl-methyl)-succinamic acid] (H-[1Nal]D[Chg][NMeW]-OtBu), the affinity corresponds to a Ki of 140 nM.
`CN(C(=O)[C@@H](NC(=O)[C@H](CC(=O)O)NC(=O)[C@@H](N)Cc1cccc2ccccc12)c1ccccc1)[C@@H](Cc1c[nH]c2ccccc12)C(=O)OC(C)(C)C` [3-(2-Amino-3-naphthalen-1-yl-propionylamino)-N-({[1-tert-butoxycarbonyl-2-(1H-indol-3-yl)-ethyl]-methyl-carbamoyl}-phenyl-methyl)-succinamic acid] (H-[1Nal]D[Phg][NMeW]-OtBu): affinity was put at a Ki of 170 nM.
Still for that read-out and setting: to `CC(C)(C)OC(=O)[C@H](Cc1c[nH]c2ccccc12)NC(=O)[C@H](Cc1ccccc1)NC(=O)[C@H](CC(=O)O)NC(=O)[C@@H](N)Cc1cccc2ccccc12` [3-(2-Amino-3-naphthalen-1-yl-propionylamino)-N-{1-[1-tert-butoxycarbonyl-2-(1H-indol-3-yl)-ethylcarbamoyl]-2-phenyl-ethyl}-succinamic acid] (H-[1Nal]DFW-OtBu) belongs 71 nM; to `CN(C)[C@@H](Cc1cccc2ccccc12)C(=O)N[C@@H](CC(=O)O)C(=O)N[C@H](C(=O)N[C@@H](Cc1c[nH]c2ccccc12)C(=O)OC(C)(C)C)c1ccccc1` [N-{[1-tert-Butoxycarbonyl-2-(1H-indol-3-yl)-ethylcarbamoyl]-phenyl-methyl}-3-(2-dimethylamino-3-naphthalen-1-yl-propionylamino)-succinamic acid], 39 nM; to `CN(C)[C@@H](Cc1cccc2ccccc12)C(=O)N[C@@H](CC(=O)O)C(=O)N[C@H](C(=O)N[C@@H](Cc1c[nH]c2ccccc12)C(=O)OC(C)(C)C)C1CCCCC1` [N-{[1-tert-Butoxycarbonyl-2-(1H-indol-3-yl)-ethylcarbamoyl]-cyclohexyl-methyl}-3-(2-dimethylamino-3-naphthalen-1-yl-propionylamino)-succinamic acid], 74 nM.

For another experiment the target is unchanged. Described as above. The source holds these as a separate data set.
In the case of `CCCC[C@H](NC(=O)[C@H](CC(=O)O)NC(=O)[C@@H](N)Cc1ccccc1)C(=O)N[C@H](Cc1c[nH]c2ccccc12)C(=O)OC(C)(C)C` [3-(2-Amino-3-phenyl-propionylamino)-N-{1-[1-tert-butoxycarbonyl-2-(1H-indol-3-yl)-ethylcarbamoyl]-pentyl}-succinamic acid], the inhibition constant (Ki) is 160 nM.
